Legend:
[1] = system: ECHORC (Watergrass (Calif.)); assay: Preemergence weed control under flooded paddy conditions; type: in vivo, Echinochloa oryzoides; settings: rated 3-4 weeks after treatment
Procedure, shortened: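 Seeds or propagules sown in top 0.5 cm of silt loam soil, flooded 1.5 to 3 cm above surface throughout. Compound in 50/50 v/v aqueous/acetone pipetted into flood water at about 0.0313 to 0.500 kg/ha. Visual 0-9 rating versus control after three to four weeks in greenhouse.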

MOOVA (Monochoria) = assay: as above; type: in vivo, Monochoria vaginalis; settings: rated 3-4 weeks after treatment
Procedure, shortened: (§1)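 Using flooded silt loam (water 1.5 to 3 cm deep), seeds sown in the top 0.5 cm were exposed preemergence to compound pipetted into the flood at about 0.0313 to 0.500 kg/ha. Effects were scored 0-9 by eye three to four weeks later.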

CASOB (Sicklepod) = assay: Postemergence herbicidal evaluation; type: in vivo, Cassia obtusifolia; settings: for CASOB herbicidal rating: postemergence
Procedure, shortened: (§2)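 Rate range approx. 0.0156–0.500 kg/ha. Foliar application at 40 psi to ~2-week seedlings; surfactant 0.5% TWEEN 20 in 50/50 acetone/water. Evaluation 4–5 wk post-treatment by 0–9 visual injury score, means of replicate tests.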

ORYSAT (Rice, Tebonnet) = assay: Preemergence herbicidal evaluation; type: in vivo, Oryza sativa, (L.) Tebonnet; settings: rated 4-5 weeks after treatment
Procedure, shortened: (§3)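 Seeds were planted in potting soil in cups, then sprayed preemergence with the test compound in aqueous acetone at about 0.0156 to 0.500 kg per hectare. Cups were kept under greenhouse conditions and visually rated 4–5 weeks after treatment on a 0–9 scale against an untreated control.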

[2] = system: SAGPY (Arrowhead (Pygmaea)); assay: Postemergence weed control under flooded paddy conditions; type: in vivo, Sagittaria pygmaea; settings: postemergence weeds, 3-4 weeks after treatment
Procedure, shortened: (§4)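 Containers holding 3–5 cm weeds and rice at 1.5–2.5 leaves are flooded to 1.5–3 cm above soil. Compound in 50/50 v/v aqueous/acetone is then added directly to the water, about 0.0313–0.500 kg/ha. Plants are kept in the greenhouse and rated 0–9 visually at 3–4 weeks.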

[3] = system: ECHORC (Watergrass (Calif.)); assay: as above; type: in vivo, Echinochloa oryzoides; settings: postemergence weeds, 3-4 weeks after treatment
Procedure, shortened: as §4

GALAP (Galium) [4] = assay: Postemergence herbicidal evaluation; type: in vivo, Galium aparine; settings: for GALAP herbicidal rating: postemergence
Procedure, shortened: as §2

AMBEL (Ragweed, Common) = assay: Postemergence herbicidal evaluation; type: in vivo, Ambrosia artemisifolia; settings: for AMBEL herbicidal rating: postemergence
Procedure, shortened: as §2

[5] = system: TRZAWR (Wheat, Winter, cv Riband); assay: Postemergence herbicidal evaluation; type: in vivo, Triticum aestivum; settings: for TRZAWR herbicidal rating: postemergence
Procedure, shortened: as §2

[6] = system: GLXMAW (Soybean, Williams); assay: Postemergence herbicidal evaluation; type: in vivo, Glycine max, (L.) Merr. cv Williams; settings: for GLXMAW herbicidal rating: postemergence
Procedure, shortened: as §2

SETVI (Foxtail, Green) = assay: Preemergence herbicidal evaluation; type: in vivo, Setaria viridis; settings: rated 4-5 weeks after treatment
Procedure, shortened: as §3

[7] = system: SAGPY (Arrowhead (Pygmaea)); assay: Preemergence weed control under flooded paddy conditions; type: in vivo, Sagittaria pygmaea; settings: rated 3-4 weeks after treatment
Procedure, shortened: as §1

GALAP (Galium) [8] = assay: Preemergence herbicidal evaluation; type: in vivo, Galium aparine; settings: rated 4-5 weeks after treatment
Procedure, shortened: as §3

CYPSE (Flatsedge) = assay: Preemergence weed control under flooded paddy conditions; type: in vivo, Cyperus serotinus; settings: rated 3-4 weeks after treatment
Procedure, shortened: as §1

SMILES: C=CCN1C(=O)CSC1=Nc1cc(-n2c(=O)cc(C(F)(F)F)n(C)c2=O)c(F)cc1Cl [Compound 27]
- Herbicidal rating ECHORC ([1]; 0.0313 kg/ha): 6.0
- Herbicidal rating ECHORC ([1]; 0.0625 kg/ha): 7.0
- Herbicidal rating ECHORC ([1]; 0.1250 kg/ha): 9.0
- Herbicidal rating ECHORC ([1]; 0.2500 kg/ha): 9.0
- Herbicidal rating MOOVA (MOOVA (Monochoria); 0.0313 kg/ha): 9.0
- Herbicidal rating MOOVA (MOOVA (Monochoria); 0.0625 kg/ha): 9.0
- Herbicidal rating MOOVA (MOOVA (Monochoria); 0.1250 kg/ha): 9.0
- Herbicidal rating MOOVA (MOOVA (Monochoria); 0.2500 kg/ha): 9.0
- CASOB herbicidal rating (CASOB (Sicklepod); rate 0.0158 kg/ha): 1.0
- CASOB herbicidal rating (CASOB (Sicklepod); rate 0.0315 kg/ha): 1.0
- CASOB herbicidal rating (CASOB (Sicklepod); rate 0.0630 kg/ha): 1.0
- Preemergence herbicidal rating ORYSAT (ORYSAT (Rice, Tebonnet); rate 0.0156 kg/ha): 0.0
- Preemergence herbicidal rating ORYSAT (ORYSAT (Rice, Tebonnet); rate 0.0313 kg/ha): 0.0
- Preemergence herbicidal rating ORYSAT (ORYSAT (Rice, Tebonnet); rate 0.0625 kg/ha): 3.0
- Preemergence herbicidal rating ORYSAT (ORYSAT (Rice, Tebonnet); rate 0.1250 kg/ha): 3.0
- Preemergence herbicidal rating ORYSAT (ORYSAT (Rice, Tebonnet); rate 0.2500 kg/ha): 8.0
- Herbicidal rating SAGPY ([2]; rate 0.0313 kg/ha): 0.0
- Herbicidal rating SAGPY ([2]; rate 0.0625 kg/ha): 0.0
- Herbicidal rating SAGPY ([2]; rate 0.1250 kg/ha): 4.0
- Herbicidal rating SAGPY ([2]; rate 0.2500 kg/ha): 4.0
- Herbicidal rating ECHORC ([3]; rate 0.0313 kg/ha): 6.0
- Herbicidal rating ECHORC ([3]; rate 0.0625 kg/ha): 7.0
- Herbicidal rating ECHORC ([3]; rate 0.1250 kg/ha): 9.0
- Herbicidal rating ECHORC ([3]; rate 0.2500 kg/ha): 9.0
- GALAP herbicidal rating (GALAP (Galium) [4]; rate 0.0158 kg/ha): 1.0
- GALAP herbicidal rating (GALAP (Galium) [4]; rate 0.0315 kg/ha): 4.0
- GALAP herbicidal rating (GALAP (Galium) [4]; rate 0.0630 kg/ha): 4.0
- AMBEL herbicidal rating (AMBEL (Ragweed, Common); rate 0.0158 kg/ha): 4.0
- AMBEL herbicidal rating (AMBEL (Ragweed, Common); rate 0.0315 kg/ha): 5.0
- AMBEL herbicidal rating (AMBEL (Ragweed, Common); rate 0.0630 kg/ha): 7.0
- TRZAWR herbicidal rating ([5]; rate 0.0158 kg/ha): 3.0
- TRZAWR herbicidal rating ([5]; rate 0.0315 kg/ha): 4.0
- TRZAWR herbicidal rating ([5]; rate 0.0630 kg/ha): 4.5
- GLXMAW herbicidal rating ([6]; rate 0.0158 kg/ha): 6.0
- GLXMAW herbicidal rating ([6]; rate 0.0315 kg/ha): 6.5
- GLXMAW herbicidal rating ([6]; rate 0.0630 kg/ha): 7.5
- Preemergence herbicidal rating SETVI (SETVI (Foxtail, Green); rate 0.0156 kg/ha): 0.0
- Preemergence herbicidal rating SETVI (SETVI (Foxtail, Green); rate 0.0313 kg/ha): 9.0
- Preemergence herbicidal rating SETVI (SETVI (Foxtail, Green); rate 0.0625 kg/ha): 9.0
- Preemergence herbicidal rating SETVI (SETVI (Foxtail, Green); rate 0.1250 kg/ha): 9.0
- Preemergence herbicidal rating SETVI (SETVI (Foxtail, Green); rate 0.2500 kg/ha): 9.0
- Herbicidal rating SAGPY ([7]; 0.0313 kg/ha): 0.0
- Herbicidal rating SAGPY ([7]; 0.0625 kg/ha): 0.0
- Herbicidal rating SAGPY ([7]; 0.1250 kg/ha): 4.0
- Herbicidal rating SAGPY ([7]; 0.2500 kg/ha): 4.0
- Preemergence herbicidal rating GALAP (GALAP (Galium) [8]; rate 0.0156 kg/ha): 0.0
- Preemergence herbicidal rating GALAP (GALAP (Galium) [8]; rate 0.0313 kg/ha): 9.0
- Preemergence herbicidal rating GALAP (GALAP (Galium) [8]; rate 0.0625 kg/ha): 9.0
- Preemergence herbicidal rating GALAP (GALAP (Galium) [8]; rate 0.1250 kg/ha): 9.0
- Preemergence herbicidal rating GALAP (GALAP (Galium) [8]; rate 0.2500 kg/ha): 9.0
- Herbicidal rating CYPSE (CYPSE (Flatsedge); 0.0313 kg/ha): 0.0
- Herbicidal rating CYPSE (CYPSE (Flatsedge); 0.0625 kg/ha): 0.0
- Herbicidal rating CYPSE (CYPSE (Flatsedge); 0.1250 kg/ha): 0.0
- Herbicidal rating CYPSE (CYPSE (Flatsedge); 0.2500 kg/ha): 9.0

SMILES: COC(=O)CCN1C(=O)CSC1=Nc1cc(-n2c(=O)cc(C(F)(F)F)n(C)c2=O)c(F)cc1Cl [Compound 28, Methyl 2-{{2-chloro-5-[3,6-dihydro-3-methyl-2,6-dioxo-4-(trifluoromethyl)-1(2H)-pyrimidinyl]-4-fluorophenyl}imino}-4-oxo-3-thiazolidinepropionate]
- Herbicidal rating ECHORC ([1]; 0.0313 kg/ha): 0.0
- Herbicidal rating ECHORC ([1]; 0.0625 kg/ha): 4.0
- Herbicidal rating ECHORC ([1]; 0.1250 kg/ha): 7.0
- Herbicidal rating ECHORC ([1]; 0.2500 kg/ha): 9.0
- Herbicidal rating MOOVA (MOOVA (Monochoria); 0.0313 kg/ha): 9.0
- Herbicidal rating MOOVA (MOOVA (Monochoria); 0.0625 kg/ha): 9.0
- Herbicidal rating MOOVA (MOOVA (Monochoria); 0.1250 kg/ha): 9.0
- Herbicidal rating MOOVA (MOOVA (Monochoria); 0.2500 kg/ha): 9.0
- Postemergence herbicidal rating CASOB (CASOB (Sicklepod); Rate 0.0158 kg/ha): 1.0
- Postemergence herbicidal rating CASOB (CASOB (Sicklepod); Rate 0.0315 kg/ha): 1.0
- Postemergence herbicidal rating CASOB (CASOB (Sicklepod); Rate 0.0630 kg/ha): 4.0
- Preemergence herbicidal rating ORYSAT (ORYSAT (Rice, Tebonnet); rate 0.0625 kg/ha): 0.0
- Preemergence herbicidal rating ORYSAT (ORYSAT (Rice, Tebonnet); rate 0.1250 kg/ha): 2.0
- Preemergence herbicidal rating ORYSAT (ORYSAT (Rice, Tebonnet); rate 0.2500 kg/ha): 8.0
- Herbicidal rating SAGPY ([2]; rate 0.0313 kg/ha): 0.0
- Herbicidal rating SAGPY ([2]; rate 0.0625 kg/ha): 0.0
- Herbicidal rating SAGPY ([2]; rate 0.1250 kg/ha): 0.0
- Herbicidal rating SAGPY ([2]; rate 0.2500 kg/ha): 0.0
- Herbicidal rating ECHORC ([3]; rate 0.0313 kg/ha): 0.0
- Herbicidal rating ECHORC ([3]; rate 0.0625 kg/ha): 4.0
- Herbicidal rating ECHORC ([3]; rate 0.1250 kg/ha): 7.0
- Herbicidal rating ECHORC ([3]; rate 0.2500 kg/ha): 9.0
- Postemergence herbicidal rating GALAP (GALAP (Galium) [4]; Rate 0.0158 kg/ha): 3.0
- Postemergence herbicidal rating GALAP (GALAP (Galium) [4]; Rate 0.0315 kg/ha): 7.0
- Postemergence herbicidal rating GALAP (GALAP (Galium) [4]; Rate 0.0630 kg/ha): 8.0
- Postemergence herbicidal rating AMBEL (AMBEL (Ragweed, Common); Rate 0.0158 kg/ha): 4.0
- Postemergence herbicidal rating AMBEL (AMBEL (Ragweed, Common); Rate 0.0315 kg/ha): 4.0
- Postemergence herbicidal rating AMBEL (AMBEL (Ragweed, Common); Rate 0.0630 kg/ha): 9.0
- Postemergence herbicidal rating TRZAWR ([5]; Rate 0.0158 kg/ha): 5.0
- Postemergence herbicidal rating TRZAWR ([5]; Rate 0.0315 kg/ha): 5.0
- Postemergence herbicidal rating TRZAWR ([5]; Rate 0.0630 kg/ha): 6.5
- Postemergence herbicidal rating GLXMAW ([6]; Rate 0.0158 kg/ha): 6.5
- Postemergence herbicidal rating GLXMAW ([6]; Rate 0.0315 kg/ha): 8.0
- Postemergence herbicidal rating GLXMAW ([6]; Rate 0.0630 kg/ha): 8.5
- Preemergence herbicidal rating SETVI (SETVI (Foxtail, Green); rate 0.0625 kg/ha): 7.0
- Preemergence herbicidal rating SETVI (SETVI (Foxtail, Green); rate 0.1250 kg/ha): 9.0
- Preemergence herbicidal rating SETVI (SETVI (Foxtail, Green); rate 0.2500 kg/ha): 9.0
- Herbicidal rating SAGPY ([7]; 0.0313 kg/ha): 0.0
- Herbicidal rating SAGPY ([7]; 0.0625 kg/ha): 0.0
- Herbicidal rating SAGPY ([7]; 0.1250 kg/ha): 0.0
- Herbicidal rating SAGPY ([7]; 0.2500 kg/ha): 0.0
- Preemergence herbicidal rating GALAP (GALAP (Galium) [8]; rate 0.0625 kg/ha): 0.0
- Preemergence herbicidal rating GALAP (GALAP (Galium) [8]; rate 0.1250 kg/ha): 0.0
- Preemergence herbicidal rating GALAP (GALAP (Galium) [8]; rate 0.2500 kg/ha): 9.0
- Herbicidal rating CYPSE (CYPSE (Flatsedge); 0.0313 kg/ha): 0.0
- Herbicidal rating CYPSE (CYPSE (Flatsedge); 0.0625 kg/ha): 0.0
- Herbicidal rating CYPSE (CYPSE (Flatsedge); 0.1250 kg/ha): 0.0
- Herbicidal rating CYPSE (CYPSE (Flatsedge); 0.2500 kg/ha): 0.0
